In US4497809A, “Cephalosporin derivatives” (Takeda Chemical Industries, Ltd., priority 1982, dated 1985):

What was measured:
in vivo = test: in vivo; set-up: species or system mouse (male SLC-ICR mice); details: mouse; for Bioavailability / AUC (area under plasma-concentration curve of non-ester form, 0 to 2 hr): 100 mg/kg; for AUC (area under plasma-concentration curve of non-ester form, 0 to 2 hr): po
Method: Test compounds: compounds obtained in examples 6, 8, 10, 13, 14, 16, 21, 23 and compound for control: pivaloyloxymethyl 7β-[2-(2-aminothiazol-4-yl)acetamido]-3-[[[1-(2-dimethylaminoethyl)-1H-tetrazol-5-yl]thio]methyl]-ceph-3-em-4-carboxylate (This will be referred to simply "compound A" hereinafter).
Male SLC-ICR mice (4 weeks old) were starved but under free access to drinking water for 16-18 hr. period to the experiments. The test compound was administered orally by intubation as an aqueous solution with 2.5 equimolar of tartaric acid at a dose of 100 mg/kg as non-ester form of the Compound I, to a group of four mice. […] The concentration of the non-ester form of the Compound I in the plasma was measured by the cylinder-plate method using Proteus mirabilis ATCC 21100 as an assay organism.
Control test: an aqueous solution of non-ester form of the Compound I in an amount of 10 ml water/Kg mouse body weight, was subcutaneously applied and AUC was calculated in the same manner as above.
Area under plasma-concentration curve (AUC) for 0 to 2 hr. after
administration was calculated by the trapezoidal rule.

[1] = test system: gram-positive bacteria (e.g., Staphylococcus aureus); test: Antibacterial activity against gram-positive bacteria; type: cell-based; details: in words
[2] = test system: gram-negative bacteria (e.g., Escherichia coli, Klebsiella pneumonia, Proteus vulgaris, Proteus mirabilis, Proteus morganii); test: Antibacterial activity against gram-negative bacteria; type: cell-based; details: in words

Compound | Bioavailability (in vivo; 120 min) | AUC (area under plasma-concentration curve of non-ester form, 0 to 2 hr) (in vivo; 120 min) | AUC at 2 h (in vivo; sc) | Bioavailability, control (in vivo; sc, 120 min) | antibacterial activity against gram-positive bacteria [1] | antibacterial activity against gram-negative bacteria [2]
CCCCCC(=O)OC(C)OC(=O)C1=C(CSc2nnnn2CCN(C)C)CS[C@@H]2[C@H](NC(=O)Cc3csc(N)n3)C(=O)N12 (stereo partly drawn) [Example 6, 1-(n-hexanoyloxy)ethyl 7β-[2-(2-aminoethiazol-4-yl)acetamido]-3-[[[1-(2-dimethylaminoethyl)-1H-tetrazol-5-yl]thio]methyl]ceph-3-em-4-carboxylate] | 67.5% | 26200 ng·h/mL | – | – | – | –
CC(C)CCC(=O)OC(C)OC(=O)C1=C(CSc2nnnn2CCN(C)C)CS[C@@H]2[C@H](NC(=O)Cc3csc(N)n3)C(=O)N12 (stereo partly drawn) [Example 8, 1-(4-methylpentanoyloxy)ethyl 7β-[2-(2-aminothiazol-4-yl)acetamido]-3-[[[1-(2-dimethylaminoethyl)-1H-tetrazol-5-yl]thio]methyl]ceph-3-em-4-carboxylate] | 52.8% | 20500 ng·h/mL | – | – | – | –
CCCCCCCC(=O)OC(C)OC(=O)C1=C(CSc2nnnn2CCN(C)C)CS[C@@H]2[C@H](NC(=O)Cc3csc(N)n3)C(=O)N12 (stereo partly drawn) [Example 13, 1-(n-octanoyloxy)ethyl 7β-[2-(2-aminothiazol-4-yl)acetamido]-3-[[[1-(2-dimethylaminoethyl)-1H-tetrazol-5-yl]thio]methyl]ceph-3-em-4-carboxylate] | 60.6% | 23500 ng·h/mL | – | – | – | –
CCCC(CCC)C(=O)OC(C)OC(=O)C1=C(CSc2nnnn2CCN(C)C)CS[C@@H]2[C@H](NC(=O)Cc3csc(N)n3)C(=O)N12 (stereo partly drawn) [Example 14, 1-(2-n-propylpentanoyloxy)ethyl 7β-[2-(2-aminothiazol-4-yl)acetamido]-3-[[[1-(2-dimethylaminoethyl)-1H-tetrazol-5-yl)thio]methyl]ceph-3-em-4-carboxylate] | 66.0% | 25600 ng·h/mL | – | – | – | –
CCCCCC(=O)OC(CC)OC(=O)C1=C(CSc2nnnn2CCN(C)C)CS[C@@H]2[C@H](NC(=O)Cc3csc(N)n3)C(=O)N12 (stereo partly drawn) [Example 16, 1-(n-hexanoyloxy)propyl 7β-[2-(2-aminothiazol-4-yl)acetamido]-3-[[[1-(2-dimethylaminoethyl)-1H-tetrazol-5-yl]thio]methyl]ceph-3-em-4-carboxylate] | 65.0% | 25200 ng·h/mL | – | – | – | –
CCC(CC)CC(=O)OC(C)OC(=O)C1=C(CSc2nnnn2CCN(C)C)CS[C@@H]2[C@H](NC(=O)Cc3csc(N)n3)C(=O)N12 (stereo partly drawn) [Example 23, 1-(3-ethylpentanoyloxy)ethyl 7β-[2-(2-aminothiazol-4-yl)acetamido]-3-[[[1-(2-dimethylaminoethyl)-1H-tetrazol-5-yl]thio]methyl]ceph-3-em-4-carboxylate] | 78.2% | 30300 ng·h/mL | – | – | – | –

Continued, in another order:

Bioavailability (in vivo; 120 min) | AUC (area under plasma-concentration curve of non-ester form, 0 to 2 hr) (in vivo; 120 min) | AUC at 2 h (in vivo; sc) | Bioavailability, control (in vivo; sc, 120 min) | Compound | antibacterial activity against gram-positive bacteria [1] | antibacterial activity against gram-negative bacteria [2]
41.8% | – | – | – | CN(C)CCn1nnnc1SCC1=C(C(=O)OCOC(=O)C(C)(C)C)N2C(=O)[C@@H](NC(=O)Cc3csc(N)n3)[C@H]2SC1 [Compound A, pivaloyloxymethyl 7β-[2-(2-aminothiazol-4-yl)acetamido]-3-[[[1-(2-dimethylaminoethyl)-1H-tetrazol-5-yl]thio]methyl]-ceph-3-em-4-carboxylate, reference compound] | – | –
93.2% | 36200 ng·h/mL | – | – | CCC(C)CC(=O)OC(C)OC(=O)C1=C(CSc2nnnn2CCN(C)C)CS[C@@H]2[C@H](NC(=O)Cc3csc(N)n3)C(=O)N12 (stereo partly drawn) [Example 10, 1-(3-methylpentanoyloxy)ethyl 7β-[2-(2-aminothiazol-4-yl)acetamido]-3-[[[1-(2-dimethylaminoethyl)-1H-tetrazol-5-yl]-thio]methyl]ceph-3-em-4-carboxylate] | – | –
100.0% | 38800 ng·h/mL | – | – | CCC(CC)C(=O)OC(C)OC(=O)C1=C(CSc2nnnn2CCN(C)C)CS[C@@H]2[C@H](NC(=O)Cc3csc(N)n3)C(=O)N12 (stereo partly drawn) [Example 21, 1-(2-ethylbutyryloxy)ethyl 7β-[2-(2-aminothiazol-4-yl)acetamido]-3-[[[1-(2-dimethylaminoethyl)-1H-tetrazol-5-yl]thio]methyl]ceph-3-em-4-carboxylate] | – | –
– | – | 38800 ng·h/mL | 100% | CN(C)CCn1nnnc1SCC1=C(C(=O)O)N2C(=O)[C@@H](NC(=O)Cc3csc(N)n3)[C@H]2SC1 [non-ester form of Compound I, 7β-[2-(2-aminothiazol-4-yl)acetamido]-3-[[[1-(2-dimethylaminoethyl)-1H-tetrazol-5-yl]thio]methyl]ceph-3-em-4-carboxylic acid, reference compound] | excellent antibacterial activity | excellent antibacterial activity
